In patent publication US20250326767A1, “NOVEL BENZOTHIAZOLE DERIVATIVES” (CARNA BIOSCIENCES, INC., priority 2021, published 2025):

Key:
Test in all cases: Inhibition test on activity of DYRK family, mobility shift assay (MSA)
Assay type in all cases: biochemical
DYRK3 = target: T1, DYRK3 (Homo sapiens, UniProt O43781); settings: ATP 20 μM; FITC-labeled DYRKtide peptide substrate; room temperature 1 hour; read-out: Inhibitory Activity DYRK3 (IC50 class)
T1 construct: purchased Carna Biosciences, Inc. 04-133
T1 sequence (O43781 1-588): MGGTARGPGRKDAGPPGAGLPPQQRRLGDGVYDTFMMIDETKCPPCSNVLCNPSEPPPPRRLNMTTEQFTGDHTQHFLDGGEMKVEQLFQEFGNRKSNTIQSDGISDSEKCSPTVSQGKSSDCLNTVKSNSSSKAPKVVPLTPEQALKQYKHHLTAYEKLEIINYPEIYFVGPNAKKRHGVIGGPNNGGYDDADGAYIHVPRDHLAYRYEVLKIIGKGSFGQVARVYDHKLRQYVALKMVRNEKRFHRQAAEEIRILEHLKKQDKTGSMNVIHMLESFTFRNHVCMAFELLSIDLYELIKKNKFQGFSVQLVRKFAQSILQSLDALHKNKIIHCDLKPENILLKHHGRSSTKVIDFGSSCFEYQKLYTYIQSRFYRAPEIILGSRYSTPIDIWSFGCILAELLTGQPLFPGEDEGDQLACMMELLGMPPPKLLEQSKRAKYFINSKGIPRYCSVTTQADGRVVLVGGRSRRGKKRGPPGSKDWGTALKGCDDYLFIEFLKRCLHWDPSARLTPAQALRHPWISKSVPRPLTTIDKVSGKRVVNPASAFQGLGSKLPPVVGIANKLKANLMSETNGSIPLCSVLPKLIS
Experimental: (§1) The kinase activity was measured by mobility shift assay (MSA) method using QuickScout Screening Assist™ MSA (commercially available kit manufactured by Carna Biosciences, Inc.). The substrate of the kinase reaction used was an FITC-labeled DYRKtide peptide included in the kit. An assay buffer [20 mM HEPES, 0.01% Triton X-100™, 2 mM dithiothreitol, pH 7.5] was used to create a substrate mixture solution with a substrate (4 μM), MgCl2 (20 mM), and ATP (DYRK1A: 100 μM; DYRKIB: 200 μM; DYRK2:40 μM; and DYRK3:20 μM). In addition, kinases (DYRK1A: manufactured by Carna Biosciences, Inc., Cat. No. 04-130; DYRK1B: manufactured by Carna Biosciences, Inc., Cat. No. 04-131; DYRK2; manufactured by Carna Biosciences, Inc., Cat. No. 04-132; and DYRK3; manufactured by Carna Biosciences, Inc., Cat. No. 04-133) were diluted with the assay buffer to prepare enzyme solutions (DYRK1A: 0.2 ng/μL; DYRK1B: 0.08 ng/μL; DYRK2: 0.04 ng/μL; and DYRK3:0.25 ng/μL). The 10 mM solution of the test compound in DMSO was further diluted with DMSO to 10 levels of the concentration (0.00003 mM, 0.0001 mM, 0.0003 mM, 0.001 mM, 0.003 mM, 0.01 mM, 0.03 mM, 0.1 mM, 0.3 mM, and 1 mM), each of which was subjected to 25-fold dilution with the assay buffer to obtain a drug solution (4% DMSO solution). 5 μL of the drug solution or a control solution (4% DMSO-assay buffer), 5 μL of the substrate mixture solution, and 10 μL of the enzyme solution were mixed in the wells of a polypropylene 384-well plate and allowed to react at room temperature for 1 hour, and then the reaction was quenched by adding 60 μL of the termination buffer included in the kit. Subsequently, the quantities of the substrates(S) and the phosphorylated substrate (P) in the reaction solution were measured using LabChip EZ Reader II system (manufactured by Caliper Life Sciences) according to the protocol of the assay kit.
(§2) The heights of the peaks of the “substrate” and the “phosphorylated substrate” were expressed as S and P, respectively, and a blank containing the assay buffer instead of the enzyme solution was also measured.
(§3) The inhibition rate (%) of the test compound was calculated according to the following equation: […]
(§4) wherein, A, B, and C represent P/(P+S) of the blank well, P/(P+S) of the control solution well, and P/(P+S) of the compound-containing well, respectively.
(§5) The IC50 value was calculated via a regression analysis of the inhibition rate and the test compound concentration (logarithmic value).

DYRK1A = target: T2, DYRK1A (Homo sapiens, UniProt Q13627); settings: ATP 100 μM; FITC-labeled DYRKtide peptide substrate; room temperature 1 hour; read-out: Inhibitory Activity DYRK1A (IC50 class)
T2 construct: purchased Carna Biosciences, Inc. 04-130
Experimental: as §1, §2, §3, §4, §5

DYRK2 = target: T3, DYRK2 (Homo sapiens, UniProt Q92630); settings: ATP 40 μM; FITC-labeled DYRKtide peptide substrate; room temperature 1 hour; read-out: Inhibitory Activity DYRK2 (IC50 class)
T3 construct: purchased Carna Biosciences, Inc. 04-132
T3 sequence (Q92630 1-601): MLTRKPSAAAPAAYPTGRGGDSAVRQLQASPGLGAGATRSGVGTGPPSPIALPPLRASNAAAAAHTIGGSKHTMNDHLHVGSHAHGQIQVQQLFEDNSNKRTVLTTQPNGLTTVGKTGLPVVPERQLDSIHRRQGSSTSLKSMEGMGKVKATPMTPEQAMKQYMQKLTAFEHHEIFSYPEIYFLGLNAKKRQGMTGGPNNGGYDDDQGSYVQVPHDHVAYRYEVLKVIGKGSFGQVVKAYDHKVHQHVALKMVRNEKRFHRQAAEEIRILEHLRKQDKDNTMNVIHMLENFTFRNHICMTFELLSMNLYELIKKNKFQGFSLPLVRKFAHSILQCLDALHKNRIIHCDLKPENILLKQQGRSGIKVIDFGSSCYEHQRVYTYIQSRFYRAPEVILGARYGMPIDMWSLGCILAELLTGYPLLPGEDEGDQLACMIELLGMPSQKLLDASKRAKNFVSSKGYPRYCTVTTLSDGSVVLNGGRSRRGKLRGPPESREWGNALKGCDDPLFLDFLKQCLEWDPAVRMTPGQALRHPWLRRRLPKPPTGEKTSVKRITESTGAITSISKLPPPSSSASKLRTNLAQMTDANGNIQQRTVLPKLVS
Experimental: as §1, §2, §3, §4, §5

DYRK1B = target: T4, DYRK1B (Homo sapiens, UniProt Q9Y463); settings: ATP 200 μM; FITC-labeled DYRKtide peptide substrate; room temperature 1 hour; read-out: Inhibitory Activity DYRK1B (IC50 class)
T4 construct: purchased Carna Biosciences, Inc. 04-131
Experimental: as §1, §2, §3, §4, §5

T4 sequence (Q9Y463 whole entry): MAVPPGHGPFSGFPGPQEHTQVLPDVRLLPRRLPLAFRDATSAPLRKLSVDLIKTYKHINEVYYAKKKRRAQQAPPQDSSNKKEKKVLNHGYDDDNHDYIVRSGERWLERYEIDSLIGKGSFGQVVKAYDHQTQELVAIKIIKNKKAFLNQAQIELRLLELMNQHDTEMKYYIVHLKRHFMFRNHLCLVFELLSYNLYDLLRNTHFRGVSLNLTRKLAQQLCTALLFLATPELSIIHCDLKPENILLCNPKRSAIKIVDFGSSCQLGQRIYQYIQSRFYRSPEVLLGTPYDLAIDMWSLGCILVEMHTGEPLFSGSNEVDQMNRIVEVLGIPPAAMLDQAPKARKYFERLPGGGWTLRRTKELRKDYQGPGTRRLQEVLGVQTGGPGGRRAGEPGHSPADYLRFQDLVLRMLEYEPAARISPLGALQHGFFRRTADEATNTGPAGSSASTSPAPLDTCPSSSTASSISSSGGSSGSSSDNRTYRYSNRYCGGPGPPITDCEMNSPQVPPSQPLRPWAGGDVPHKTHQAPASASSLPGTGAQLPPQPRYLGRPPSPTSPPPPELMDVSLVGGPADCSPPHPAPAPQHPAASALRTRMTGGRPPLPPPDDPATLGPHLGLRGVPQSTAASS

Row | Compound | IC50 (DYRK3) | IC50 (DYRK1A) | IC50 (DYRK2) | IC50 (DYRK1B)
1 | CC#CC1N(c2nc3c4c(ccc3s2)OCC4)C(=O)NC12CCC2 (single isomer, unassigned) [Example 21, 7-(7,8-dihydrobenzofuro[4,5-d]thiazol-2-yl)-8-(prop-1-yn-1-yl)-5,7-diazaspiro[3.4]octan-6-one] | > 1000 nM | 100 to 1000 nM | > 1000 nM | 
2 | CC#CC1N(c2nc3c4c(ccc3s2)OCC4)C(=O)NC12CCCC2 (single isomer, unassigned) [Example 22, 3-(7,8-dihydrobenzofuro[4,5-d]thiazol-2-yl)-4-(prop-1-yn-1-yl)-1,3-diazaspiro[4.4]nonan-2-one] | 100 to 1000 nM |  | > 1000 nM | 
3 | CC#C[C@H]1[C@H](C)CNC(=O)N1c1nc2c3c(ccc2s1)OCC3 (stereo in doubt) [Example 13, (5R*,6R*)-1-(7,8-dihydrobenzofuro[4,5-d]thiazol-2-yl)-5-methyl-6-(prop-1-yn-1-yl)tetrahydropyrimidin-2(1H)-one] | > 1000 nM |  | > 1000 nM | > 1000 nM
4 | CC#CC1N(c2nc3c4c(ccc3s2)OCC4)C(=O)NC12CC2 (racemic) [Example 2, (RS)-6-(7,8-dihydrobenzofuro[4,5-d]thiazol-2-yl)-7-(prop-1-yn-1-yl)-4,6-diazaspiro[2.4]heptan-5-one] | 100 to 1000 nM | < 10 nM | 100 to 1000 nM | 
5 | CC#CC1N(c2nc3c4c(ccc3s2)OCCO4)C(=O)NC12CC2 (single isomer, unassigned) [Example 8, 6-(7,8-dihydro-[1,4]dioxyno[2′,3′:5,6]benzo[1,2-d]thiazol-2-yl)-7-(prop-1-yn-1-yl)-4,6-diazaspiro[2.4]heptan-5-one] | > 1000 nM |  | > 1000 nM | 
6 | CC#CC1N(c2nc3c4c(ccc3s2)OCCO4)C(=O)NC12CC2 (single isomer, unassigned) [Example 7, 6-(7,8-dihydro-[1,4]dioxyno[2′,3′:5,6]benzo[1,2-d]thiazol-2-yl)-7-(prop-1-yn-1-yl)-4,6-diazaspiro[2.4]heptan-5-one] | 100 to 1000 nM |  | 100 to 1000 nM | < 10 nM
7 | CC#C[C@@H]1[C@H](C)CNC(=O)N1c1nc2c3c(ccc2s1)OCC3 (stereo in doubt) [Example 10, (5R*,6S*)-1-(7,8-dihydrobenzofuro[4,5-d]thiazol-2-yl)-5-methyl-6-(prop-1-yn-1-yl)tetrahydropyrimidin-2(1H)-one] | > 1000 nM |  | > 1000 nM | 
8 | CC#CC1N(c2nc3c4c(ccc3s2)OCCO4)C(=O)NC12CC2 (racemic) [Example 4, (RS)-6-(7,8-dihydro-[1,4]dioxyno[2′,3′:5,6]benzo[1,2-d]thiazol-2-yl)-7-(prop-1-yn-1-yl)-4,6-diazaspiro[2.4]heptan-5-one] | 100 to 1000 nM |  | 100 to 1000 nM | 
9 | CC#C[C@@H]1[C@@H](C)CNC(=O)N1c1nc2c3c(ccc2s1)OCC3 (stereo in doubt) [Example 11, (5S*, 6S*)-1-(7,8-dihydrobenzofuro[4,5-d]thiazol-2-yl)-5-methyl-6-(prop-1-yn-1-yl)tetrahydropyrimidin-2(1H)-one] | > 1000 nM |  | > 1000 nM | 
10 | CC#CC1CCNC(=O)N1c1nc2c3c(ccc2s1)OCCO3 (racemic) [Example 1, (RS)-1-(7,8-dihydro-[1,4]dioxino[2′,3′:5,6]benzo[1,2-d]thiazol-2-yl)-6-(prop-1-yn-1-yl)tetrahydropyrimidin-2(1H)-one] | > 1000 nM | < 10 nM | > 1000 nM | 
11 | CC#CC1N(c2nc3c4c(ccc3s2)OCC4)C(=O)NC12CC2 (single isomer, unassigned) [Example 18, 6-(7,8-dihydrobenzofuro[4,5-d]thiazol-2-yl)-7-(prop-1-yn-1-yl)-4,6-diazaspiro[2.4]heptan-5-one] | 10 to 100 nM | < 10 nM | 100 to 1000 nM | 
12 | CC#CC1N(c2nc3c4c(ccc3s2)OCC4)C(=O)NC12CC2 (single isomer, unassigned) [Example 19, 6-(7,8-dihydrobenzofuro[4,5-d]thiazol-2-yl)-7-(prop-1-yn-1-yl)-4,6-diazaspiro[2.4]heptan-5-one] | > 1000 nM | > 1000 nM | > 1000 nM | 
13 | CC#CC1N(c2nc3c4c(ccc3s2)OCC4)C(=O)NC12CCCC2 (single isomer, unassigned) [Example 23, 3-(7,8-dihydrobenzofuro[4,5-d]thiazol-2-yl)-4-(prop-1-yn-1-yl)-1,3-diazaspiro[4.4]nonan-2-one] | > 1000 nM |  | > 1000 nM | 
14 | CC#CC1N(c2nc3c4c(ccc3s2)OCC4)C(=O)NC12COC2 (racemic) [Example 9, (RS)-7-(7,8-dihydro-benzofuro[4,5-d]thiazol-2-yl)-8-(prop-1-yn-1-yl)-2-oxa-5,7-diazaspiro[3.4]octan-6-one] | 100 to 1000 nM | 10 to 100 nM | > 1000 nM | 
15 | CC#CC1N(c2nc3c4c(ccc3s2)OCC4)C(=O)NC12CCC2 (single isomer, unassigned) [Example 20, 7-(7,8-dihydrobenzofuro[4,5-d]thiazol-2-yl)-8-(prop-1-yn-1-yl)-5,7-diazaspiro[3.4]octan-6-one] | 100 to 1000 nM | < 10 nM | > 1000 nM | 
16 | CC#CC1CCNC(=O)N1c1nc2c3c(ccc2s1)OCC3 (racemic) [Example 3, (RS)-3-(7,8-dihydrobenzofuro[4,5-d]thiazol-2-yl)-4-(prop-1-yn-1-yl)-tetrahydropyrimidin-2(1H)-one] | 100 to 1000 nM | < 10 nM | 100 to 1000 nM | 
17 | CC#CC1CCNC(=O)N1c1nc2c3c(ccc2s1)OCCO3 (single isomer, unassigned) [Example 6, 1-(7,8-dihydro-[1,4]dioxyno[2′,3′:5,6]benzo[1,2-d]thiazol-2-yl)-6-(prop-1-yn-1-yl)tetrahydropyrimidin-2(1H)-one] | > 1000 nM | 100 to 1000 nM | > 1000 nM | 
